A short description of data set [1]: Elimination experiment: monoPAP mixture by IV injection, analytes in whole blood. It counts as in vivo, Sprague-Dawley rats. The following applies: monoPAP IV dose; for Half-life: about 15 mg/kg each, PFCA product in whole blood; for Cmax / Tmax: whole blood. As to the method:
(§1) This research was conducted under an animal use protocol approved by the University of Toronto Animal Care Committee. All animals were treated humanely and with regard for alleviation of suffering. Sprague-Dawley rats were obtained from Charles River Laboratories Inc. (Sherbrooke, QC, Canada) The animals were singly housed and exposed to a 12/12 hr light/dark cycle with food and water available ad libitum. Blood samples were collected from the saphenous vein using Microvette CB 300 vials (Sarstedt AG & Co., Montreal, QC, Canada) embedded with lithium-heparin as an anticoagulant. Whole-blood samples were stored at −20°C, and urine and feces samples were stored at 4°C.
(§2) Two groups of four 8-week-old male rats were administered a mixture of 4:2, 6:2, 8:2, and 10:2 diPAP or monoPAP, respectively, each at about 15 mg/kg, at 2 mL/kg by intravenous (IV) injection into the lateral tail vein. The dosing vehicle was 50:50 propylene glycol:water. Two control male rats were administered clean vehicle at 2 mL/kg [for details see Supplemental Material, Table 3 (doi:10.1289/ehp.1002409)].
(§3) Blood was collected from all animals 3 days before dosing to establish background contamination. For the uptake experiment, blood samples were collected at 1, 3, and 6 hr and 1, 2, 4, 7, 10, 14, 18, and 22 days after dosing. For the elimination experiment, blood samples were collected at 2, 4, and 6 hr and 1, 2, 4, 8, 11, 15, and 18 days after dosing. On the final sampling day, the animals were sacrificed by carbon dioxide asphyxiation, and about 10 mL of blood was collected by cardiac puncture into a BD Vacutainer embedded with lithium-heparin.
(§4) The compounds of interest fall into four categories: a) the diPAP and monoPAP parent compounds, b) the saturated and unsaturated fluorotelomer carboxylic acid (FTCA and FTUCA) metabolic intermediates, c) the FTOH-sulfate and FTOH-glucuronide phase II metabolites, and d) the final PFCA biotransformation products [see Supplemental Material, Table 1 (doi:10.1289/ehp.1002409)]. We analyzed these compounds in whole blood, urine, and feces samples. For full analytical details, see Supplemental Material. All PFCAs, FTCAs, FTUCAs, and phase II metabolites were quantified by internal calibration. Because internal standards were not available, monoPAPs and diPAPs were quantified by standard addition. We performed spike and recovery experments to validate the extraction and quantification techniques used (for details, see Supplemental Material).
(§5) Analyte and matrix specific limits of detection (LODs) and limits of quantification (LOQs) are provided in Supplemental Material (doi:10.1289/ehp.1002409). For the purpose of calculating means, values < LOD were assigned a value of zero, and values < LOQ but > LOD were used unaltered but are indicated by asterisks in figures and parentheses in tables. Values are presented using the arithmetic mean ± SE. Full data sets are available in Supplemental Material.

Data set [2] can be described thus: Uptake experiment: monoPAP mixture by oral gavage, analytes in whole blood. The following applies: monoPAP gavage dose; for Tmax / Cmax: whole blood; for Cmax: values in parentheses < LOQ but > LOD. It counts as in vivo, Sprague-Dawley rats. The method, then:
as §1
(§6) Two groups of four 8-week-old male rats were administered a mixture of 4:2, 6:2, 8:2, and 10:2 diPAP or monoPAP, respectively, each at about 50 mg/kg, at 4 mL/kg by oral gavage without prior fasting. […] Two control male rats were administered clean vehicle at 4 mL/kg [for details, see Supplemental Material, Table 3 (doi:10.1289/ehp.1002409)].
as §3, §4, §5

The nature of data set [3]: Elimination experiment: diPAP mixture by IV injection, analytes in whole blood. The format is in vivo, Sprague-Dawley rats. The following applies: diPAP IV dose, whole blood; for Half-life: about 15 mg/kg each. The method, then: as §1, §2, §3, §4
(§7) Analyte and matrix specific limits of detection (LODs) and limits of quantification (LOQs) are provided in Supplemental Material (doi:10.1289/ehp.1002409). For the purpose of calculating means, values < LOD were assigned a value of zero, and values < LOQ but > LOD were used unaltered but are indicated by asterisks in figures and parentheses in tables. Values are presented using the arithmetic mean ± SE. Full data sets are available in Supplemental Material. […]

Details of data set [4]: method as in Chang et al. 2008; Ohmori et al. 2003. The following applies: male rats; ref Chang et al. 2008; Ohmori et al. 2003; cited from earlier work.
The nature of data set [5]: Uptake experiment: diPAP mixture by oral gavage, analytes in whole blood. The format is in vivo, Sprague-Dawley rats. The following applies: diPAP gavage dose, whole blood; for Cmax / Half-life: mean ± SE; for Cmax: values in parentheses < LOQ but > LOD; for Half-life: about 50 mg/kg each. The method, then:
as §1, §6, §3, §4, §7

On the set-up of data set [6]: method as in Olsen et al. 2007. Particulars: ref Olsen et al. 2007; cited from earlier work.
The mark [7] stands for this setting: mean ± SE, values in parentheses < LOQ but > LOD.
The mark [8] stands for this setting: male, Sprague-Dawley, rat, in vivo, 15 mg/kg, read-out: Tmax (converted).
[9] abbreviates: male, Sprague-Dawley, rat, in vivo, po, 50 mg/kg, read-out: Tmax (converted).
Where [10] appears, read: male, Sprague-Dawley, rat, in vivo, po, 50 mg/kg, read-out: Cmax.

Molecules are shown by their SMILES.

With `O=C(O)C(F)(F)C(F)(F)C(F)(F)F` [PFBA, perfluorobutanoic acid], the “Half-life” value turned out to be 12.7 ± 3.6 h in data set [1] and 79.2 ± 28.8 h in data set [3] (mean ± SE). In addition, the “Cmax” value in data set [1] is reported as 7.3 ± 1.3 ng/g; in data set [2], 9.7 ± 1.9 ng/g; in data set [3] (setting [7]), 20 ± 5 ng/g; in data set [5], 3.8 ± 1.0 ng/g. Moreover, the Tmax in data set [1] was determined as 6 h; in data set [2] it was 1 day days; in data set [3] it was 1 day days; in data set [5], 1 day days. In addition, in data set [4], the Serum half-lives result is listed as “on the order of hours”.
Regarding `O=C(O)C(F)(F)C(F)(F)C(F)(F)C(F)(F)C(F)(F)F` [PFHxA, perfluorohexanoic acid], the “Half-life” value in data set [1] came out at 5.52 ± 5.52 h; in data set [3] (mean ± SE) it was 43.2 ± 12.2 h; in data set [5], 101 ± 31.2 h. The results for the “Cmax” value in data set [1], in data set [2] and in data set [5] were 5.6 ± 1.3 ng/g, 7.4 ± 1.5 ng/g and 10 ± 1.2 ng/g, respectively. The Tmax turned out to be 4 h in data set [1], 4 h in data set [2], 1 day days in data set [3] and 4 h in data set [5]. The “Cmax (ng/g)” value in data set [3] (setting [7]) is “(3.0 ± 1.0) ^d ng/g”. In addition, the Serum half-lives entry in data set [4] is listed as “on the order of hours”.
As to `O=C(O)C(F)(F)C(F)(F)C(F)(F)C(F)(F)C(F)(F)C(F)(F)C(F)(F)F` [PFOA, perfluorooctanoic acid], the Cmax came out at 8.5 ± 1.4 ng/g in data set [1] (male, Sprague-Dawley, rat, in vivo, 15 mg/kg, read-out: Cmax); 28 ± 8 ng/g in data set [2] (setting [10]); 9.3 ± 2.4 ng/g in data set [3] (male, Sprague-Dawley, rat, in vivo, 15 mg/kg, mean ± SE, values in parentheses < LOQ but > LOD, read-out: Cmax); 7.2 ± 1.7 ng/g in data set [5] (setting [10]). For the same molecule, the Tmax in data set [1] (setting [8]) was 96 h; in data set [2] (setting [9]) it was 24 h; in data set [3] (setting [8]), 48 h; in data set [5] (setting [9]), 96 h. In addition, the Half-life in data set [1] (male, Sprague-Dawley, rat, in vivo, read-out: Half-life (converted)) was 288 h; in data set [2] (male, Sprague-Dawley, rat, in vivo, po, about 50 mg/kg each, PFCA product in whole blood, read-out: Half-life (converted)), 240 h; in data set [3] (male, Sprague-Dawley, rat, in vivo, mean ± SE, read-out: Half-life (converted)), 552 h; in data set [5] (male, Sprague-Dawley, rat, in vivo, po, read-out: Half-life (converted)), 264 h. Besides, the “Human serum half-life (arithmetic)” value in data set [6] is on record as 4.5 years.
